One series addresses SARS-CoV-2 PLpro (Severe acute respiratory syndrome coronavirus 2, UniProt P0DTD1). In words: biochemical. The following applies: 200 nM PLpro, 10 μM FRET substrate, 30 min preincubation at 30° C. The protocol: FRET-Based PL^pro Enzymatic Assay
The SARS-CoV-2 PL^pro enzymatic assays were carried out as follows: The assay was assembled in 96-well plates with 100 μl of 200 nM PL^Pro protein in PL^Pro reaction buffer [50 mM Hepes (pH 7.5), 0.01% Triton X-100, and 5 mM DTT]. Then, 1 μl of testing compound at various concentrations was added to each well and incubated at 30° C. for 30 minutes. The enzymatic reaction was initiated by adding 1 μl of 1 mM FRET substrate (the final substrate concentration is 10 μM). The reaction was monitored in a Cytation 5 image reader with filters for excitation at 360/40 nm and emission at 460/40 nm at 30° C. for 1 hour. The initial velocity of the enzymatic reaction with and without testing compounds was calculated by linear regression for the first 15 minutes of the kinetic progress curve. The ICso values were calculated by plotting the initial velocity against various concentrations of testing compounds with a dose-response function in Prism 8 software.

Series [1] in a line: Cytotoxicity assay in Vero E6 cells (neutral red uptake). In kind it is cell-based. As to conditions: African green monkey, 2 days at 37° C. The method, then:
Cytotoxicity Assay in Vero E6 Cells
Briefly, 80,000 cells/ml of the tested cell lines were dispensed into 96-well cell culture plates at 100 μl per well. Twenty-four hours later, the growth medium was removed and washed with 150 μl of PBS buffer. Two hundred microliters of fresh serum-free medium containing serial diluted compounds was added to each well. After incubating for 2 days at 37° C., the medium was removed and replaced with 100 μl of DMEM medium containing neutral red (40 μg/ml) and incubated for 2 to 4 hours at 37° C. The amount of neutral red taken up was determined by measuring the absorbance at 540 nm using a Multiskan FC Microplate Photometer (Thermo Fisher Scientific). The CC50 values were calculated from best-fit dose-response curves with variable slope in Prism 8.

Structures are written as SMILES. A value given as a limit tells only on which side of the number the result lay.

What is called IC50 is the concentration needed to halve the response being measured. Lower therefore signals greater potency in that assay. The term CC50 denotes the concentration at which the toxic effect on the cells reaches its halfway point. In the case of `CCn1ccc(-c2cc(-c3cnn(C)c3)cc([C@@H](C)NC(=O)c3ccccc3CNC(=O)CNC(=O)/C=C/C(=O)N3CC(F)(F)C3)c2)n1` [Example 25, (R,E)-2-((2-(4-(3,3-difluoroazetidin-1-yl)-4-oxobut-2-enamido)acetamido)methyl)-N-(1-(3-(1-ethyl-1H-pyrazol-3-yl)-5-(1-methyl-1H-pyrazol-4-yl)phenyl)ethyl)benzamide], the IC50 on SARS-CoV-2 PLpro was under 1 µM. Besides, the half-maximal cytotoxic concentration (CC50) at 2 days in series [1] is over 500 µM.

On SARS-CoV-2 PLpro, `C=CC(=O)NNC(=O)CCc1ccccc1C(=O)N[C@H](C)c1cc(-c2cnn(C)c2)cc(-c2ccn(CC)n2)c1` [Example 4, (R)-2-(3-(2-Acryloylhydrazineyl)-3-oxopropyl)-N-(1-(3-(1-ethyl-1H-pyrazol-3-yl)-5-(1-methyl-1H-pyrazol-4-yl)phenyl)ethyl)benzamide] gave an IC50 of 1 to 5 µM. The molecule also displayed a CC50 at 2 days in series [1] of over 500 µM.

Molecule `CCn1ccc(-c2cc(-c3cnn(C)c3)cc([C@@H](C)NC(=O)c3ccccc3CCC(=O)NCC(=O)CF)c2)n1` [Example 28, (R)-N-(1-(3-(1-ethyl-1H-pyrazol-3-yl)-5-(1-methyl-1H-pyrazol-4-yl)phenyl)ethyl)-2-(3-((3-fluoro-2-oxopropyl)amino)-3-oxopropyl)benzamide] registered an IC50 against SARS-CoV-2 PLpro of over 5 µM. In series [1], this molecule registered a CC50 at 2 days of over 250 µM.

Molecule `C[C@@H](NC(=O)c1ccccc1CNC(=O)CNC(=O)CC#N)c1cc(-c2cnn(C)c2)cc(-c2ccn(C)n2)c1` [Example 31, (R)-2-((2-(2-cyanoacetamido)acetamido)methyl)-N-(1-(3-(1-methyl-1H-pyrazol-3-yl)-5-(1-methyl-1H-pyrazol-4-yl)phenyl)ethyl)benzamide] came in with an IC50 against SARS-CoV-2 PLpro of over 5 µM. This molecule returned a CC50 at 2 days in series [1] of over 500 µM.

For the molecule `C=C(Cl)C(=O)NNC(=O)CCc1ccccc1C(=O)N[C@H](C)c1cc(-c2cnn(C)c2)cc(-c2ccn(CC)n2)c1` [Example 17, (R)-2-(3-(2-(2-Chloroacryloyl)hydrazineyl)-3-oxopropyl)-N-(1-(3-(1-ethyl-1H-pyrazol-3-yl)-5-(1-methyl-1H-pyrazol-4-yl)phenyl)ethyl)], the IC50 at SARS-CoV-2 PLpro was in the range of 1 to 5 µM. The CC50 at 2 days in series [1] turned out to be 33 µM.

Regarding `CCn1ccc(-c2cc(-c3cnn(C)c3)cc([C@@H](C)NC(=O)c3ccccc3CCC(=O)NNC(=O)/C=C/C(=O)OC(C)(C)C)c2)n1` [Example 7, tert-Butyl (R,E)-4-(2-(3-(2-((1-(3-(1-ethyl-1H-pyrazol-3-yl)-5-(1-methyl-1H-pyrazol-4-yl)phenyl)ethyl)carbamoyl)phenyl)propanoyl)hydrazineyl)-4-oxobut-2-enoate], the IC50 at SARS-CoV-2 PLpro is under 1 µM.

At SARS-CoV-2 PLpro, `CCOC(=O)/C=C/C(=O)NCC(=O)NCc1ccccc1C(=O)NC1(c2cc(-c3cnn(C)c3)cc(-c3ccn(CC)n3)c2)CC1` [Example 23, ethyl (E)-4-((2-((2-((1-(3-(1-ethyl-1H-pyrazol-3-yl)-5-(1-methyl-1H-pyrazol-4-yl)phenyl)cyclopropyl)carbamoyl)benzyl)amino)-2-oxoethyl)amino)-4-oxobut-2-enoate] displayed an IC50 of 1 to 5 µM. In series [1], this molecule showed a CC50 at 2 days of over 500 µM.

Regarding `CCn1ccc(-c2cc(-c3cnn(C)c3)cc([C@@H](C)NC(=O)c3ccccc3CCC(=O)NNC(=O)/C=C/C(=O)N3CC(C)(C)C3)c2)n1` [Example 8, (R,E)-2-(3-(2-(4-(3,3-Dimethylazetidin-1-yl)-4-oxobut-2-enoyl)hydrazineyl)-3-oxopropyl)-N-(1-(3-(1-ethyl-1H-pyrazol-3-yl)-5-(1-methyl-1H-pyrazol-4-yl)phenyl)ethyl)benzamide], in series [1], the CC50 at 2 days was over 250 µM.

Molecule `C=CS(=O)(=O)NCC(=O)NCc1ccccc1C(=O)N[C@H](C)c1cc(-c2cnn(C)c2)cc(-c2ccn(C)n2)c1` [Example 30, (R)-N-(1-(3-(1-methyl-1H-pyrazol-3-yl)-5-(1-methyl-1H-pyrazol-4-yl)phenyl)ethyl)-2-((2-(vinylsulfonamido)acetamido)methyl)benzamide] had an IC50 against SARS-CoV-2 PLpro of under 1 µM. In addition, in series [1], the CC50 at 2 days is over 250 µM.

On SARS-CoV-2 PLpro, `CCOC(=O)/C=C/C(=O)NNC(=O)CCc1ccccc1C(=O)N[C@H](C)c1cc(-c2cnn(C)c2)cc(-c2ccn(CC)n2)c1` [Example 9, Ethyl (R,E)-4-(2-(3-(2-((1-(3-(1-ethyl-1H-pyrazol-3-yl)-5-(1-methyl-1H-pyrazol-4-yl)phenyl)ethyl)carbamoyl)phenyl)propanoyl)hydrazineyl)-4-oxobut-2-enoate] returned an IC50 of under 1 µM.

Regarding `C=CS(=O)(=O)NNC(=O)CCc1ccccc1C(=O)N[C@H](C)c1cc(-c2cnn(C)c2)cc(-c2ccn(CC)n2)c1` [Example 6, (R)-N-(1-(3-(1-Ethyl-1H-pyrazol-3-yl)-5-(1-methyl-1H-pyrazol-4-yl)phenyl)ethyl)-2-(3-oxo-3-(2-(vinylsulfonyl)hydrazineyl)propyl)benzamide], the IC50 on SARS-CoV-2 PLpro is under 1 µM. In series [1], this molecule gave a CC50 at 2 days of 31 µM.

For the molecule `CCn1ccc(-c2cc(-c3cnn(C)c3)cc([C@@H](C)NC(=O)c3ccccc3CCC(=O)NNS(=O)(=O)C(Cl)Cl)c2)n1` [Example 11, (R)-2-(3-(2-((dichloromethyl)sulfonyl)hydrazineyl)-3-oxopropyl)-N-(1-(3-(1-Ethyl-1H-pyrazol-3-yl)-5-(1-methyl-1H-pyrazol-4-yl)phenyl)ethyl)benzamide], the IC50 against SARS-CoV-2 PLpro was over 5 µM. Further, the CC50 at 2 days in series [1] is over 250 µM.

The molecule `C=CC(=O)NCC(=O)NCc1ccccc1C(=O)N[C@H](C)c1cc(-c2cnn(C)c2)cc(-c2ccn(C)n2)c1` [Example 29, (R)-2-((2-acrylamidoacetamido)methyl)-N-(1-(3-(1-methyl-1H-pyrazol-3-yl)-5-(1-methyl-1H-pyrazol-4-yl)phenyl)ethyl)benzamide] returned an IC50 at SARS-CoV-2 PLpro of over 5 µM. The CC50 at 2 days in series [1] is over 500 µM.

With `CCn1ccc(-c2cc(-c3cnn(C)c3)cc([C@@H](C)NC(=O)c3ccccc3CCC(=O)NNC(=O)/C=C/C(=O)NC34CC(C3)C4)c2)n1` [Example 20, (R,E)-2-(3-(2-(4-(Bicyclo[1.1.1]pentan-1-ylamino)-4-oxobut-2-enoyl)hydrazineyl)-3-oxopropyl)-N-(1-(3-(1-ethyl-1H-pyrazol-3-yl)-5-(1-methyl-1 H-pyrazol-4-yl)phenyl)ethyl)benzamide], on SARS-CoV-2 PLpro, the IC50 is under 1 µM. In series [1], the CC50 at 2 days is over 250 µM.

The molecule `CCn1ccc(-c2cc(-c3cnn(C)c3)cc([C@@H](C)NC(=O)c3ccccc3CCC(=O)NNS(=O)(=O)CCl)c2)n1` [Example 10, (R)-2-(3-(2-((Chloromethyl)sulfonyl)hydrazineyl)-3-oxopropyl)-N-(1-(3-(1-ethyl-1H-pyrazol-3-yl)-5-(1-methyl-1H-pyrazol-4-yl)phenyl)ethyl)benzamide] gave an IC50 against SARS-CoV-2 PLpro of over 5 µM. In series [1], this molecule had a CC50 at 2 days of over 250 µM.

The molecule `CCn1ccc(-c2cc(-c3cnn(C)c3)cc([C@@H](C)NC(=O)c3ccccc3CCC(=O)NNC(=O)/C=C/C(=O)N3CC(F)C3)c2)n1` [Example 21, (R,E)-N-(1-(3-(1-ethyl-1H-pyrazol-3-yl)-5-(1-methyl-1H-pyrazol-4-yl)phenyl)ethyl)-2-(3-(2-(4-(3-fluoroazetidin-1-yl)-4-oxobut-2-enoyl)hydrazineyl)-3-oxopropyl)benzamide] came in with an IC50 at SARS-CoV-2 PLpro of under 1 µM. This molecule gave a CC50 at 2 days in series [1] of over 500 µM.

The molecule `CCn1ccc(-c2cc(-c3cnn(C)c3)cc(C3(NC(=O)c4ccccc4CNC(=O)CNC(=O)/C=C/C(=O)N4CC(F)(F)C4)CC3)c2)n1` [Example 24, (E)-2-((2-(4-(3,3-difluoroazetidin-1-yl)-4-oxobut-2-enamido)-acetamido)methyl)-N-(1-(3-(1-ethyl-1H-pyrazol-3-yl)-5-(1-methyl-1H-pyrazol-4-yl)phenyl)cyclopropyl)benzamide] registered an IC50 against SARS-CoV-2 PLpro of 1 to 5 µM. The same molecule came in with a CC50 at 2 days in series [1] of over 500 µM.

For `CCn1ccc(-c2cc(-c3cnn(C)c3)cc([C@@H](C)NC(=O)c3ccccc3CCC(=O)NNC(=O)C34CC(C3)C4)c2)n1` [Example 27, (R)-2-(3-(2-(bicyclo[1.1.1]pentane-1-carbonyl)hydrazineyl)-3-oxopropyl)-N-(1-(3-(1-ethyl-1H-pyrazol-3-yl)-5-(1-methyl-1H-pyrazol-4-yl)phenyl)ethyl)benzamide], the IC50 on SARS-CoV-2 PLpro is over 5 µM. Further, the CC50 at 2 days in series [1] was over 250 µM.

On SARS-CoV-2 PLpro, `CCn1ccc(-c2cc(-c3cnn(C)c3)cc([C@@H](C)NC(=O)c3ccccc3CCC(=O)NNC(=O)CCl)c2)n1` [Example 15, (R)-2-(3-(2-(2-Chloroacetyl)hydrazineyl)-3-oxopropyl)-N-(1-(3-(1-ethyl-1H-pyrazol-3-yl)-5-(1-methyl-1H-pyrazol-4-yl)phenyl)ethyl)benzamide] registered an IC50 of under 1 µM. In addition, in series [1], the CC50 at 2 days is over 250 µM.

At SARS-CoV-2 PLpro, `CCn1ccc(-c2cc(-c3cnn(C)c3)cc([C@@H](C)NC(=O)c3ccccc3CCC(=O)NNC(=O)/C=C/C(=O)N3CC(C(F)(F)F)C3)c2)n1` [Example 18, (R,E)-N-(1-(3-(1-Ethyl-1H-pyrazol-3-yl)-5-(1-methyl-1H-pyrazol-4-yl)phenyl)ethyl)-2-(3-oxo-3-(2-(4-oxo-4-(3-(trifluoromethyl)azetidin-1-yl)but-2-enoyl)hydrazineyl)propyl)benzamide] gave an IC50 of under 1 µM.
